Test results: ChEMBL document CHEMBL5370606, “Diterpenoids from Euphorbia fischeriana with Kv1.3 Inhibitory Activity” (J Nat Prod, 2023)

How the values were obtained:
[1] = target: T1, Potassium voltage-gated channel subfamily A member 3 (Homo sapiens, UniProt P22001); test: Inhibition of Kv1.3 (unknown origin) expressed in HEK293 cells at 30 uM at -90 mV holding potential by automated patch-clamp technique relative to control; assay type: cell-based
hERG (KCNH2) [2] = target: T2, hERG (KCNH2) (Homo sapiens, UniProt Q12809); test: Inhibition of human ERG expressed in HEK293 cells at 10 uM at -80 mV holding potential by whole-cell patch clamp method; assay type: toxicity, cell-based; details: HEK293 cells that express hERG
HEK293 = test: Cytotoxicity against HEK293 cells; assay type: toxicity, cell-based; details: human
[3] = target: T1, Potassium voltage-gated channel subfamily A member 3; test: Inhibition of Kv1.3 (unknown origin) expressed in HEK293 cells at 10 uM at -90 mV holding potential by automated patch-clamp technique relative to control; assay type: cell-based
hERG (KCNH2) [4] = target: T2, hERG (KCNH2); test: Inhibition of human ERG expressed in HEK293 cells at 30 uM at -80 mV holding potential by whole-cell patch clamp method; assay type: toxicity, cell-based; details: HEK293 cells that express hERG
[5] = target: Voltage-gated inwardly rectifying potassium channel KCNH2 (Homo sapiens, UniProt Q12809); test: Inhibition of human ERG expressed in HEK293 cells at -80 mV holding potential by whole-cell patch clamp method; assay type: toxicity, cell-based
[6] = target: T1, Potassium voltage-gated channel subfamily A member 3; test: Inhibition of Kv1.3 (unknown origin) expressed in HEK293 cells at -90 mV holding potential by automated patch-clamp technique; assay type: cell-based
Homo sapiens = species on record: Homo sapiens; test: Selectivity index, ratio of IC50 for human ERG expressed in HEK293 cells to IC50 for Kv1.3 (unknown origin) expressed in HEK293 cells; assay type: cell-based

T1 sequence (P22001 whole entry): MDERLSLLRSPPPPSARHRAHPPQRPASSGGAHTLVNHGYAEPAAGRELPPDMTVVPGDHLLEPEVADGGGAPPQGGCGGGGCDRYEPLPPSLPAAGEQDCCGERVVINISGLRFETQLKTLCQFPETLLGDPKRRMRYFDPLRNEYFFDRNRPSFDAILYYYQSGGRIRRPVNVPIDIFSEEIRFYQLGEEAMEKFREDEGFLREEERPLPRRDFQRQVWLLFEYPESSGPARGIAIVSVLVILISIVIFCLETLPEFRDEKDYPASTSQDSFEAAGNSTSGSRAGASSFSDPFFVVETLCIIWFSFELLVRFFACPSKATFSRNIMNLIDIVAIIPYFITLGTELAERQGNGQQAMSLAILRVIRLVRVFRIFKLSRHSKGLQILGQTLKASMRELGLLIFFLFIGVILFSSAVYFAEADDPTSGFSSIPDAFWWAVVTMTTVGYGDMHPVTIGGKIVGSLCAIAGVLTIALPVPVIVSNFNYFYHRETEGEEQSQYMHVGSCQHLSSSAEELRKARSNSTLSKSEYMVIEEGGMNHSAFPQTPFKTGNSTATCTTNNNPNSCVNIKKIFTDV
T2 sequence (Q12809 whole entry): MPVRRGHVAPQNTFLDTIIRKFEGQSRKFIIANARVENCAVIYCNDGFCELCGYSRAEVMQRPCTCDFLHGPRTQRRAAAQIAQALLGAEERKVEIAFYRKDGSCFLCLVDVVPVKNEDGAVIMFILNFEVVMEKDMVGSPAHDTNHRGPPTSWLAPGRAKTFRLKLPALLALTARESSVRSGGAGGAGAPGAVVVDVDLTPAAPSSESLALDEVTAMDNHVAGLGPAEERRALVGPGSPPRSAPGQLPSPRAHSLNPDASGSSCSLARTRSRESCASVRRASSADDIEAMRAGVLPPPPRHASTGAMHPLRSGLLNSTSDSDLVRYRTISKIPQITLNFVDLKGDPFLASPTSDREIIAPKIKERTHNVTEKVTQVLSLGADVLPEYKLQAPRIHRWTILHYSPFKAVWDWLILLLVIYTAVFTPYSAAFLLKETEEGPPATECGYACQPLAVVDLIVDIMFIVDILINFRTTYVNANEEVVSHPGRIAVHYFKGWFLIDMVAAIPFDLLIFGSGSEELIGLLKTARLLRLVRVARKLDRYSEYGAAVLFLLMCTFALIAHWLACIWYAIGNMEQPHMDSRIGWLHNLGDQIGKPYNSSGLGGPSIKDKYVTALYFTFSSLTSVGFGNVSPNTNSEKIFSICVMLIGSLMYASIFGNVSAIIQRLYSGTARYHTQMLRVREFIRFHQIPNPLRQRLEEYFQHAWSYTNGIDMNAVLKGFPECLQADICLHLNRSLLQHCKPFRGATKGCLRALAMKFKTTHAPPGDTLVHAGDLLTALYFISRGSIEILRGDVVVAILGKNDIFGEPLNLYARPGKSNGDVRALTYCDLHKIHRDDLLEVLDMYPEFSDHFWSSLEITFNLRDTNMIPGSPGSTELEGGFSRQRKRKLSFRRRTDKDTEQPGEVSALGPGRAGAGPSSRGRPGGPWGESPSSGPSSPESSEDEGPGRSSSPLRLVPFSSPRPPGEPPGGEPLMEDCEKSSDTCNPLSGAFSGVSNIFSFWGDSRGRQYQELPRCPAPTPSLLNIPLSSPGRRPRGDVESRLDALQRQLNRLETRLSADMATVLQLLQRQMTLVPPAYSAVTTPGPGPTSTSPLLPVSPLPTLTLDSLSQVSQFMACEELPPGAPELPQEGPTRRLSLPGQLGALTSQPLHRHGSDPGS
Chain of Voltage-gated inwardly rectifying potassium channel KCNH2 (Q12809 whole entry): as above

Row | Compound | inhibition [1] [%] | inhibition at 10 µM (hERG (KCNH2) [2]) [%] | Activity (HEK293) | inhibition [3] [%] | inhibition at 30 µM (hERG (KCNH2) [4]) [%] | IC50 [5] [µM] | IC50 [6] [µM] | Ratio IC50 (Homo sapiens)
1 | CC(=O)O[C@@H]1CC(=O)C(C)(C)/C=C/[C@@H](C)[C@@H](O)[C@@]2(OC(C)=O)C[C@@H](C)[C@H](OC(=O)c3ccccc3)[C@@H]2/C=C/1C | 86.5 | 36.9 | Non-Toxic | 62.2 | 60.2 |  |  | 
2 | CC1=C2C=C3CC[C@@H]4C(C)(C)C(=O)CC[C@@]4(C)[C@]3(O)C[C@H]2OC1=O | 17.2 |  | Non-Toxic |  |  |  |  | 
3 | CC(=O)O[C@@H]1[C@@H](C)/C=C/C(C)(C)C(=O)C[C@@H](O)/C(C)=C/[C@H]2[C@@H](OC(=O)c3ccccc3)[C@H](C)C[C@]12O | 69.3 |  | Non-Toxic | 28.7 |  |  |  | 
4 | CC(=O)O[C@]12C[C@@H](C)[C@H](O)[C@@H]1/C=C(\C)[C@H](O)C[C@@H]1[C@@H](/C=C(\C)C2=O)C1(C)C | 70.6 |  | Non-Toxic | 33.5 |  |  |  | 
5 | CC1(C)C(=O)CC[C@]2(C)[C@@H]1CC[C@@]13CC[C@@H](C[C@H]12)[C@](O)(CO)C3 | 7.1 |  | Non-Toxic |  |  |  |  | 
6 | CC(=O)O[C@@H]1[C@@H](C)/C=C/C(C)(C)C(=O)C[C@@H](OC(C)=O)/C(C)=C/[C@H]2[C@@H](OC(=O)c3ccccc3)[C@H](C)C[C@]12O | 72 |  | Non-Toxic | 30.2 |  |  |  | 
7 | CC1=C2C=C3CC[C@@H]4C(C)(C)[C@H](O)C(=O)C[C@@]4(C)[C@@H]3C[C@H]2OC1=O | 20.4 |  | Non-Toxic |  |  |  |  | 
8 | COC(=O)CCC(=O)O[C@@H]1C[C@H]2[C@@H](/C=C(\C)C(=O)[C@@]3(OC(C)=O)C[C@@H](C)[C@H](O)[C@@H]3/C=C/1C)C2(C)C | 89.4 | 29.7 | Non-Toxic | 47.6 | 49.7 |  |  | 
9 | C=C1C[C@@]23CC[C@@H]4C(C)(C)C(=O)CC[C@@]4(C)[C@@H]2C[C@@H]1[C@@H](O)C3=O | 32.3 |  | Non-Toxic |  | 24.5 |  |  | 
10 | C=C1C[C@@]23CC[C@@H]4C(C)(C)[C@H](O)CC[C@@]4(C)[C@@H]2C[C@@H]1[C@@H](O)C3=O | 10.4 |  | Non-Toxic |  |  |  |  | 
11 | CC1=C2C=C3CC[C@@H]4C(C)(C)C(=O)[C@H](O)[C@@]4(C)[C@@H]3C[C@H]2OC1=O | 24.4 |  | Non-Toxic |  | 19.9 |  |  | 
12 | CC1=C2C=C3CC[C@@H]4C(C)(C)[C@H](O)CC[C@@]4(C)[C@]3(O)C[C@H]2OC1=O | 21.2 |  | Non-Toxic |  |  |  |  | 
13 | CC(=O)O[C@@H]1[C@@H](C)/C=C/C(C)(C)C(=O)C[C@@H](O)/C(C)=C/[C@H]2[C@@H](OC(=O)c3ccccc3)[C@H](C)C[C@]12OC(C)=O | 84.2 | 44.6 | Non-Toxic | 59.8 | 75.4 |  |  | 
14 | CCC/C=C\C=C\C(=O)O[C@@H]1C[C@H]2[C@@H](/C=C(\C)C(=O)[C@@]3(OC(C)=O)C[C@@H](C)[C@H](O)[C@@H]3/C=C/1C)C2(C)C | 77.7 |  | Non-Toxic | 39.8 |  |  |  | 
15 | CC1(C)[C@H](O)CC[C@]2(C)[C@@H]1CC[C@@]13CC[C@@H](C[C@H]12)[C@](O)(CO)C3 | 21 |  | Non-Toxic |  |  |  |  | 
16 | CC(=O)O[C@H]1[C@@H](C)/C=C/C(C)(C)C(=O)CC(=O)/C(C)=C/[C@H]2[C@@H](OC(=O)c3ccccc3)[C@H](C)C[C@@]21O | 77.5 |  | Non-Toxic | 42.9 |  |  |  | 
17 | CC(=O)OCC1=C[C@@H]2C(=O)[C@]3(C=C(C)[C@H](O)[C@@]3(O)[C@@H]1O)[C@H](C)C[C@@H]1[C@H]2C1(C)C | 12.5 |  | Non-Toxic |  | 23.3 |  |  | 
18 | CC(=O)O[C@]12C[C@@H](C)[C@H](O)[C@@H]1/C=C(\C)[C@H](O)C[C@H]1[C@@H](/C=C(\C)C2=O)C1(C)C | 67.5 |  | Non-Toxic | 21.7 |  |  |  | 
19 | CC(=O)O[C@]12C[C@@H](C)[C@H](O)[C@@H]1[C@H]1O[C@]1(C)[C@H](O)C[C@H]1[C@@H](/C=C(\C)C2=O)C1(C)C | 75.1 |  | Non-Toxic | 39.2 |  |  |  | 
20 | CC(=O)O[C@]12C[C@@H](C)[C@H](OC(=O)c3ccccc3)[C@@H]1/C=C(\C)[C@H](O)C[C@H]1[C@@H](/C=C(\C)C2=O)C1(C)C | 81.2 |  | Non-Toxic | 55.6 | 40.9 | > 30 | 4.3 | > 7
21 | Fc1ccc([C@@H]2CCNC[C@H]2COc2ccc3c(c2)OCO3)cc1 [PAROXETINE] | 35.1 |  | Non-Toxic |  |  |  |  | 
22 | CC1=C2C(=C[C@H]3[C@]4(C)CC[C@@H](O)C(C)(C)[C@H]4CC[C@]34O[C@H]24)OC1=O | 14.5 |  | Non-Toxic |  |  |  |  | 
23 | C/C1=C\[C@H]2[C@@H](OC(=O)c3ccccc3)[C@H](C)C[C@]2(O)[C@H](O)[C@@H](C)/C=C/C(C)(C)C(=O)C[C@H]1O | 83.5 |  | Non-Toxic | 43.5 |  |  |  | 
